Data taken from PubChem BioAssay (NCI).
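Values below derive from 48-hour exposures of cells grown in 96-well plates, with endpoints linearly interpolated between the two concentrations bracketing the appropriate inhibition level. The concentration for 50% growth inhibition is given as GI50. TGI: concentration producing complete growth inhibition.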

Columns and labels:
Test in all cases: NCI-60 cell line screen, 48 h
[1] = system: RXF 393 renal
[2] = system: KM12 colon
[3] = system: 786-0 renal
[4] = system: TK-10 renal
[5] = system: U251 CNS
[6] = system: SK-OV-3 ovarian
[7] = system: M14 melanoma
[8] = system: SW-620 colon
[9] = system: SK-MEL-2 melanoma
[10] = system: SNB-78 CNS
[11] = system: SK-MEL-5 melanoma
[12] = system: NCI-H226 lung
[13] = system: MALME-3M melanoma
[14] = system: HOP-92 NSCLC
[15] = system: OVCAR-5 ovarian
[16] = system: A549 NSCLC
[17] = system: NCI-H522 lung
[18] = system: UACC-257 melanoma
[19] = system: K-562 leukemia
[20] = system: OVCAR-8 ovarian
[21] = system: KM20L2 colon
[22] = system: HT29 colon
[23] = system: ACHN renal
[24] = system: CAKI-1 renal
[25] = system: NCI-H460 lung
[26] = system: UO-31 renal
[27] = system: DLD-1 colon
[28] = system: LXFL 529 NSCLC
[29] = system: UACC-62 melanoma
[30] = system: SN12C renal
[31] = system: IGROV1 ovarian
[32] = system: OVCAR-3 ovarian
[33] = system: HOP-18 NSCLC
[34] = system: DMS 273 small cell lung
[35] = system: OVCAR-4 ovarian
[36] = system: MOLT-4 leukemia
[37] = system: SF-295 CNS
[38] = system: HCC-2998 colon
[39] = system: SNB-75 CNS
[40] = system: SNB-19 CNS
[41] = system: SF-539 CNS
[42] = system: HCT-15 colon
[43] = system: EKVX NSCLC
[44] = system: HL-60(TB) leukemia
[45] = system: SF-268 CNS
[46] = system: HOP-62 NSCLC
[47] = system: RPMI-8226 leukemia
[48] = system: NCI-H23 lung
[49] = system: COLO 205 colon
[50] = system: SK-MEL-28 melanoma
[51] = system: LOX IMVI melanoma
[52] = system: CCRF-CEM leukemia
[53] = system: M19-MEL melanoma
[54] = system: HCT-116 colon
[55] = system: SR leukemia
[56] = system: A498 renal
[57] = system: DMS 114 small cell lung

Compound: [CH3][Ge]([CH3])([CH2]CC#N)[S]c1ccccc1
- GI50 [1]: 11.8 µM
- TGI [1]: 27 µM
- GI50 [2]: 14.6 µM
- TGI [2]: 33.5 µM
- GI50 [3]: 17.1 µM
- TGI [3]: 32.8 µM
- GI50 [4]: 24.4 µM
- TGI [4]: 72.8 µM
- GI50 [5]: 9.85 µM
- TGI [5]: 22.6 µM
- GI50 [6]: 21.7 µM
- TGI [6]: 55.9 µM
- GI50 [7]: 18.8 µM
- TGI [7]: 43 µM
- GI50 [8]: 14.1 µM
- TGI [8]: 29.4 µM
- GI50 [9]: 14.7 µM
- TGI [9]: 39.6 µM
- GI50 [10]: 13.5 µM
- TGI [10]: 61.8 µM
- GI50 [11]: 26 µM
- TGI [11]: 75.9 µM
- GI50 [12]: 13.1 µM
- TGI [12]: 33.4 µM
- GI50 [13]: 73.7 µM
- TGI [13]: > 100 µM
- GI50 [14]: 31.2 µM
- TGI [14]: 79.7 µM
- GI50 [15]: 17.8 µM
- TGI [15]: 39.5 µM
- GI50 [16]: 2190 nM
- TGI [16]: > 100 µM
- GI50 [17]: 3.31 µM
- TGI [17]: 11.1 µM
- GI50 [18]: 22.7 µM
- TGI [18]: 70.7 µM
- GI50 [19]: 8 µM
- TGI [19]: > 100 µM
- GI50 [20]: 11.5 µM
- TGI [20]: 46.5 µM
- GI50 [21]: 21.6 µM
- TGI [21]: 47.9 µM
- GI50 [22]: 17.8 µM
- TGI [22]: 32.9 µM
- GI50 [23]: 18 µM
- TGI [23]: 33.1 µM
- GI50 [24]: 21.3 µM
- TGI [24]: 43.7 µM
- GI50 [25]: 16.3 µM
- TGI [25]: 29.8 µM
- GI50 [26]: 10.5 µM
- TGI [26]: 22.3 µM
- GI50 [27]: 14.6 µM
- TGI [27]: 31.6 µM
- GI50 [28]: 13.5 µM
- TGI [28]: 27.5 µM
- GI50 [29]: 13.5 µM
- TGI [29]: 29.8 µM
- GI50 [30]: 15.2 µM
- TGI [30]: 31.6 µM
- GI50 [31]: 371 nM
- TGI [31]: 1280 nM
- GI50 [32]: 12.3 µM
- TGI [32]: 29.1 µM
- GI50 [33]: > 100 µM
- TGI [33]: > 100 µM
- GI50 [34]: 6.1 µM
- TGI [34]: 29.5 µM
- GI50 [35]: 18.6 µM
- TGI [35]: 50 µM
- GI50 [36]: 3.58 µM
- TGI [36]: 17.6 µM
- GI50 [37]: 16.5 µM
- TGI [37]: 41.5 µM
- GI50 [38]: 38.5 nM
- TGI [38]: > 100 µM
- GI50 [39]: 23.4 µM
- TGI [39]: 74 µM
- GI50 [40]: 18 µM
- TGI [40]: 37.3 µM
- GI50 [41]: 12.9 µM
- TGI [41]: 27.8 µM
- GI50 [42]: 15 µM
- TGI [42]: 28.2 µM
- GI50 [43]: 7.28 µM
- TGI [43]: 66.2 µM
- GI50 [44]: 2200 nM
- TGI [44]: 11.9 µM
- GI50 [45]: 18.6 µM
- TGI [45]: 51.6 µM
- GI50 [46]: 14.6 µM
- TGI [46]: 38.1 µM
- GI50 [47]: 16.2 µM
- TGI [47]: 53.2 µM
- GI50 [48]: 18.3 µM
- TGI [48]: 46.4 µM
- GI50 [49]: 17.5 µM
- TGI [49]: 52.4 µM
- GI50 [50]: 16.5 µM
- TGI [50]: 65.1 µM
- GI50 [51]: 4.36 µM
- TGI [51]: 16.9 µM
- GI50 [52]: 1380 nM
- TGI [52]: 4.35 µM
- GI50 [53]: 16 µM
- TGI [53]: 48 µM

Compound: COc1cc(O)c2c(c1C)C(C)(O)c1c(C)coc1C2=O (configuration not stated)
- TGI [1]: > 100 µM
- TGI [2]: > 100 µM
- TGI [4]: > 100 µM
- TGI [5]: > 100 µM
- TGI [6]: > 100 µM
- TGI [7]: > 100 µM
- TGI [10]: > 100 µM
- TGI [12]: > 100 µM
- TGI [54]: > 100 µM
- TGI [14]: > 100 µM
- TGI [15]: > 100 µM
- TGI [16]: > 100 µM
- TGI [18]: > 100 µM
- TGI [20]: > 100 µM
- TGI [22]: > 100 µM
- TGI [23]: > 100 µM
- TGI [25]: > 100 µM
- TGI [55]: > 100 µM
- TGI [26]: > 100 µM
- TGI [29]: > 100 µM
- TGI [31]: > 100000 nM
- TGI [56]: > 100 µM
- TGI [37]: > 100 µM
- TGI [40]: > 100 µM
- TGI [43]: > 100 µM
- TGI [44]: > 100 µM
- TGI [57]: > 100 µM
- TGI [46]: > 100 µM
- TGI [48]: > 100 µM
- TGI [50]: > 100 µM
- TGI [53]: > 100 µM
